# According to publication PMC7418559, “Synthesis and SAR of Tetracyclic Inhibitors of Protein Kinase CK2 Derived from Furocarbazole W16” (Chemmedchem, 2020):
# Where two headings read alike, the source gives them in different places.
# Legend:
# holoenzyme CK2α2β2 = biological target: T1, holoenzyme CK2α2β2 (Homo sapiens, UniProt P68400); experiment: Capillary electrophoresis (CE) assay, enzyme inhibition of the holoenzyme; assay type: biochemical; settings: for inhibition at 10 µM: read-out: Inhibition (%) of CK2α2β2
# T1 construct: made in house; host or cells: E. coli BL21(DE3)
# T1 sequence (P68400 whole entry): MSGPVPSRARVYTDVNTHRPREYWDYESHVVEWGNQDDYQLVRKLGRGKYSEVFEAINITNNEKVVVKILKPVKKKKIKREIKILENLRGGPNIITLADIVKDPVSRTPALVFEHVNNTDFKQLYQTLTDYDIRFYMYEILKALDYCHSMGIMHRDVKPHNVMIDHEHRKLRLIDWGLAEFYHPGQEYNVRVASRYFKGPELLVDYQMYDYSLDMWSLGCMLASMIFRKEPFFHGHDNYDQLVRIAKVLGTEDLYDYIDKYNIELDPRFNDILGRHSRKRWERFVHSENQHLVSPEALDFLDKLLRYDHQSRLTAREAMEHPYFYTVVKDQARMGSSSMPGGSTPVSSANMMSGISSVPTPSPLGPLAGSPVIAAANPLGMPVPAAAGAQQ
# Protocol: In this assay, the decapeptide […], a known class I substrate suitable for assaying the kinase activity of both the CK2 holoenzyme and the catalytically active CK2 subunits,50, 58 was reacted with ATP in the presence of enzyme, which transfers a phosphate group to Ser7 of the decapeptide. Due to the additional negative charge of the phosphate group, the decapeptide and the phosphorylated decapeptide can be separated by CE.
# Enzymatic activities with or without inhibitors were determined for the holoenzyme (CK2α2β2), the CK2α subunit, and the mutated CK2α′ ^C336S subunit by a capillary electrophoresis assay as described before.59 For this purpose, CK2α as well as (CK2α2β2) holoenzyme were purified after recombinant expression in E. coli BL21(DE3) and purified according the protocol of Grankowski et al.62 The mutated CK2α′ ^C336S subunit was purified by Ni‐NTA affinity chromatography using an N‐terminally attached His6 tag. […] For both CK2α subunits an assay buffer containing 100 mM NaCl instead of 60 mM NaCl as for the holoenzyme, and 20 mM MgCl2 instead of 10 mM MgCl2 was applied. For the holoenzyme, 1 μg was added, whereas for CK2α and the mutated CK2α′ ^C336S subunit 0.25 μg was added each. For each compound inhibition was determined three times independently at an initial concentration of 10 μM and the mean value and the standard deviation (SD) were calculated.
# CK2α subunit = biological target: T2, CK2α subunit (Homo sapiens, UniProt P68400); experiment: Capillary electrophoresis (CE) assay, enzyme inhibition of the CK2α subunit; assay type: biochemical; settings: for inhibition at 10 µM: read-out: Inhibition (%) of CK2α
# T2 construct: made in house; host or cells: E. coli BL21(DE3)
# T2 sequence (P68400 whole entry): as above
# Text: (§1) In this assay, the decapeptide […], a known class I substrate suitable for assaying the kinase activity of both the CK2 holoenzyme and the catalytically active CK2 subunits,50, 58 was reacted with ATP in the presence of enzyme, which transfers a phosphate group to Ser7 of the decapeptide. Due to the additional negative charge of the phosphate group, the decapeptide and the phosphorylated decapeptide can be separated by CE. […] The data on the inhibition of the kinase activities of CK2α2β2, CK2α subunit and mutated CK2α’ ^C336S subunit are summarized in Table 1.
# (§2) Enzymatic activities with or without inhibitors were determined for the holoenzyme (CK2α2β2), the CK2α subunit, and the mutated CK2α′ ^C336S subunit by a capillary electrophoresis assay as described before.59 For this purpose, CK2α as well as (CK2α2β2) holoenzyme were purified after recombinant expression in E. coli BL21(DE3) and purified according the protocol of Grankowski et al.62 The mutated CK2α′ ^C336S subunit was purified by Ni‐NTA affinity chromatography using an N‐terminally attached His6 tag. Successful purification was controlled by SDS‐PAGE. Enzymatic activity was determined in the presence of 60 μM ATP and 114 μM of the substrate peptide […]. For both CK2α subunits an assay buffer containing 100 mM NaCl instead of 60 mM NaCl as for the holoenzyme, and 20 mM MgCl2 instead of 10 mM MgCl2 was applied. For the holoenzyme, 1 μg was added, whereas for CK2α and the mutated CK2α′ ^C336S subunit 0.25 μg was added each. For each compound inhibition was determined three times independently at an initial concentration of 10 μM and the mean value and the standard deviation (SD) were calculated.
# [1] = biological target: T3, mutated CK2α’ ^C336S subunit (Homo sapiens, UniProt P19784, C336S); experiment: Capillary electrophoresis (CE) assay, enzyme inhibition of the mutated CK2α′ C336S subunit; assay type: biochemical; settings: for inhibition at 10 µM: read-out: Inhibition (%) of CK2α’ ^C336S
# T3 construct: His6 (N); made in house
# T3 sequence (P19784 1-350 C336S): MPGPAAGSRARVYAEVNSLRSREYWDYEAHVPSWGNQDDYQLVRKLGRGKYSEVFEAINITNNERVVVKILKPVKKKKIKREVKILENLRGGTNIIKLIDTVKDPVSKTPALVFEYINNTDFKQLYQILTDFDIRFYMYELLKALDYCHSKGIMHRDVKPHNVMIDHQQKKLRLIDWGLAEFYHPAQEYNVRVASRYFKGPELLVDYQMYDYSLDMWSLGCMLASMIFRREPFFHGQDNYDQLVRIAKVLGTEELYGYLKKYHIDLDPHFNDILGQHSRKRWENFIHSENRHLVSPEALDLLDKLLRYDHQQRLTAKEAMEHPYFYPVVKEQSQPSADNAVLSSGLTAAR
# Text: as §1, §2
# [2] = biological target: T4, CK2α/CK2β interaction (CK2α^1−335 / fluorescently labeled CK2β^1−193) (Homo sapiens, UniProt P68400); settings: for Inhibition of CK2α/CK2β2 interaction K i: MST, global fit with K D = […] nM, mean±SEM of 2–4 experiments, prec.=precipitation, n.s.=not significant
# T4 sequence (P68400 1-335): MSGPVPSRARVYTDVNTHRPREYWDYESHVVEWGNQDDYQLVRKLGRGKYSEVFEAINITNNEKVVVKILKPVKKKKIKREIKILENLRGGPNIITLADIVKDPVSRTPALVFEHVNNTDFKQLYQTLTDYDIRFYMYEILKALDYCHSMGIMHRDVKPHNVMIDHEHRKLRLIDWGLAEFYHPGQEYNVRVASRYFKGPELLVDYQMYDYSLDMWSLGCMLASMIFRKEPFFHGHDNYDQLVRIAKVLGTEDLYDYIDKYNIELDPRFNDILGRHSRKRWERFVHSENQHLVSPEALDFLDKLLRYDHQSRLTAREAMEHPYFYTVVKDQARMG
# Protocol: The inhibition of the interaction between the CK2α and the CK2β subunit was determined in a microscale thermophoresis (MST) assay.
# To quantify the protein‐protein interaction in the presence of potential inhibitors, the investigated compounds were first dissolved in DMSO (2‐10 mM) and then 50‐fold diluted in ITC buffer (25 mM Tris‐HCl, 500 mM NaCl, pH 8.5) containing 0.1 % (v/v) Tween 20 to concentrations of either 40, 100 or 200 μM in 2 % (v/v) DMSO, i. e. twice the final concentrations: 20, 50 and 100 μM, respectively, in 1 % (v/v) DMSO, 0.05 % (v/v) Tween 20. […] MST traces were recorded at room temperature using a Nanotemper Monolith™ NT.115 Series Instrument with Monolith™ NT.115 standard treated capillaries and normalized to initial fluorescence (MO.Affinity Analysis, Nanotemper). […] Next, the statistical significance of the shift from K D to K D’ was determined for each compound by means of an unpaired Student's t test (Table S4). […] Data was analyzed and statistically evaluated with the program GraphPad Prism v.5.04 for Windows (GraphPad Software, San Diego, CA, USA).
# a Shown are mean  SEM values of KD and KD’ for n separate experiments.
# significant (n. s.), P > 0.05; *, P ≤ 0.05; **, P ≤ 0.01; ***, P ≤ 0.001; ****, P ≤ 0.0001. prec.
# [3] = c=10 μM, CE assay, mean±SD of three experiments, n.s.=not significant
Structure (SMILES),Inhibition (%) of CK2α (CK2α subunit; [3]),"Inhibition (%) of CK2α’ ^C336S [1, 3]",Ki [2],inhibition at 10 µM (holoenzyme CK2α2β2; [3]),Inhibition of CK2α/CK2β2 interaction K i [2],further results
"COc1cc([C@H]2c3c([nH]c4ccccc34)[C@H](C(=O)N3C(=O)OC[C@@H]3Cc3ccccc3)[C@H]3C(=O)OC(=O)[C@@H]23)cc(OC)c1OC [(+)‐3 c, (3aR,4R,10S,10aS)‐4‐{[(S)‐4‐Benzyl‐2‐oxo‐1,3‐oxazolidin‐3‐yl]carbonyl}‐10‐(3,4,5‐trimethoxyphenyl)‐4,5,10,10a‐tetrahydrofuro[3,4‐b]carbazole‐1,3(3aH)‐dione]",,,,,,inhibition at 10 µM (holoenzyme CK2α2β2): 66 ± 16%; inhibition at 10 µM (CK2α subunit): 65 ± 4%; inhibition at 10 µM [1]: 52 ± 38%
"COc1cc([C@@H]2c3c([nH]c4ccccc34)[C@@H](C(=O)N3C(=O)OC[C@@H]3Cc3ccccc3)[C@@H]3C(=O)OC(=O)[C@H]23)cc(OC)c1OC [(+)‐3 d, (3aS,4S,10R,10aR)‐4‐{[(S)‐4‐Benzyl‐2‐oxo‐1,3‐oxazolidin‐3‐yl]carbonyl}‐10‐(3,4,5‐trimethoxyphenyl)‐4,5,10,10a‐tetrahydrofuro[3,4‐b]carbazole‐1,3(3aH)‐dione]",,n.s.,,,,inhibition at 10 µM (holoenzyme CK2α2β2): 92 ± 7%; inhibition at 10 µM (CK2α subunit): 43 ± 13%
COc1cc([C@H]2c3c([nH]c4ccccc34)[C@@H](C(=O)N3C(=O)OC[C@@H]3Cc3ccccc3)[C@H]3C(=O)NC(=O)[C@@H]23)cc(OC)c1OC [(+)‐9 a],n.s.,n.s.,,20 ± 4%,n.s.,
"COc1cc([C@H]2c3c([nH]c4ccccc34)[C@@H](C(=O)N3C(=O)OC[C@H]3Cc3ccccc3)[C@H]3C(=O)NC(=O)[C@@H]23)cc(OC)c1OC [(+)‐9 b, (3aS,4S,10S,10aS)‐4‐{[(R)‐4‐Benzyl‐2‐oxo‐1,3‐oxazolidin‐3‐yl]carbonyl}‐10‐(3,4,5‐trimethoxyphenyl)‐4,5,10,10a‐tetrahydropyrrolo[3,4‐b]carbazole‐1,3(2H,3aH)‐dione]",n.s.,n.s.,4.9 ± 0.8 µM,12 ± 7%,,
COc1cc([C@H]2c3c([nH]c4ccccc34)[C@H](C(=O)N3C(=O)OC[C@@H]3Cc3ccccc3)[C@H]3C(=O)NC(=O)[C@@H]23)cc(OC)c1OC [(+)‐9 c],,,,< 50%,prec.,
COc1cc([C@H]2c3c([nH]c4ccccc34)[C@H](C(=O)N3C(=O)OC[C@H]3Cc3ccccc3)[C@H]3C(=O)NC(=O)[C@@H]23)cc(OC)c1OC [(+)‐9 d],,,,< 50%,n.s.,
COc1cc([C@H]2c3c([nH]c4ccccc34)[C@@H](C(=O)N3C(=O)OC[C@@H]3Cc3ccccc3)[C@H]3C(=O)N(C)C(=O)[C@@H]23)cc(OC)c1OC [(+)‐10 a],,,2.8 ± 0.9 µM,26 ± 7%,,"inhibition at 10 µM (CK2α subunit; [3]): 41 ± 11%; inhibition at 10 µM [1, 3]: 53 ± 15%"
"COc1cc([C@H]2c3c([nH]c4ccccc34)[C@@H](C(=O)N3C(=O)OC[C@H]3Cc3ccccc3)[C@H]3C(=O)N(C)C(=O)[C@@H]23)cc(OC)c1OC [(+)‐10 b, (3aS,4S,10S,10aS)‐4‐{[(R)‐4‐Benzyl‐2‐oxo‐1,3‐oxazolidin‐3‐yl]carbonyl}‐2‐methyl‐10‐(3,4,5‐trimethoxyphenyl)‐4,5,10,10a‐tetrahydropyrrolo[3,4‐b]carbazole‐1,3(2H,3aH)‐dione]",n.s.,n.s.,7.2 ± 1.5 µM,31 ± 9%,,
COc1cc([C@H]2c3c([nH]c4ccccc34)[C@H](C(=O)N[C@H](CO)Cc3ccccc3)[C@H]3C(=O)NC(=O)[C@@H]23)cc(OC)c1OC [(+)‐14 c],,,,< 50%,n.s.,
COc1cc([C@H]2c3c([nH]c4ccccc34)[C@H](C(=O)N[C@@H](CO)Cc3ccccc3)[C@H]3C(=O)NC(=O)[C@@H]23)cc(OC)c1OC [(+)‐14 d],,,,< 50%,n.s.,
COc1cc([C@@H]2c3c([nH]c4ccccc34)[C@H](C(=O)N3C(=O)OC[C@H]3Cc3ccccc3)[C@@H]3C(=O)OC(=O)[C@H]23)cc(OC)c1OC [(−)‐3 a],,,,,,inhibition at 10 µM (holoenzyme CK2α2β2): 89 ± 3%; inhibition at 10 µM (CK2α subunit): 73 ± 4%; inhibition at 10 µM [1]: 93 ± 2%

# Second part, led by results:
Inhibition (%) of CK2α (CK2α subunit; [3]),"Inhibition (%) of CK2α’ ^C336S [1, 3]",Ki [2],inhibition at 10 µM (holoenzyme CK2α2β2; [3]),Inhibition of CK2α/CK2β2 interaction K i [2],Structure (SMILES),further results
n.s.,n.s.,32 ± 17 µM,,,CCOC(=O)C1c2[nH]c3ccccc3c2C(c2cc(OC)c(OC)c(OC)c2)C2C(=O)NC(=O)C12 (racemic) [(±)‐11],Inhibition (%) of CK2α2β2 (holoenzyme CK2α2β2; [3]): n.s.
n.s.,n.s.,1.8 ± 0.8 µM,,,COc1cc([C@@H]2c3c([nH]c4ccccc34)[C@@H](C(=O)O)[C@@H]3C(=O)NC(=O)[C@H]23)cc(OC)c1OC (racemic) [(±)‐12],Inhibition (%) of CK2α2β2 (holoenzyme CK2α2β2; [3]): n.s.
,,,< 50%,prec.,COc1cc([C@@H]2c3c([nH]c4ccccc34)[C@@H](C(=O)N3C(=O)OC[C@H]3Cc3ccccc3)[C@@H]3C(=O)NC(=O)[C@H]23)cc(OC)c1OC [(‐)‐9 c],
n.s.,n.s.,3.6 ± 0.6 µM,,,COc1cc([C@@H]2c3c([nH]c4ccccc34)[C@H](C(=O)N3C(=O)OC[C@H]3Cc3ccccc3)[C@@H]3C(=O)NC(=O)[C@H]23)cc(OC)c1OC [(−)‐9 a],Inhibition (%) of CK2α2β2 (holoenzyme CK2α2β2; [3]): n.s.
,,,< 50%,n.s.,COc1cc([C@@H]2c3c([nH]c4ccccc34)[C@@H](C(=O)N3C(=O)OC[C@@H]3Cc3ccccc3)[C@@H]3C(=O)NC(=O)[C@H]23)cc(OC)c1OC [(−)‐9 d],
,,,< 50%,n.s.,COc1cc([C@@H]2c3c([nH]c4ccccc34)[C@@H](C(=O)N[C@H](CO)Cc3ccccc3)[C@@H]3C(=O)NC(=O)[C@H]23)cc(OC)c1OC [(−)‐14 d],
